Data on four molecules can be found in US7166636B2, “Indole-amid derivatives which possess glycogen phosphorylase inhibitory activity” (AstraZeneca AB, priority 2002, dated 2007).

In general, IC50 refers to the concentration that inhibits the measured activity by half.

The test system of one assay is conscious dogs. The note with it: following a glucagon challenge; cited from earlier work.
Another assay relates to hepatocytes. The note with it: cited from earlier work; for glucose output: glucagon stimulated.
The test system of a further assay is db/db and ob/ob mice. Conditions: db/db and ob/ob mice following treatment; cited from earlier work.
In assay [1] the target is T1, Human recombinant liver glycogen phosphorylase a (hrl GPa) (Homo sapiens, UniProt P06737).
T1 sequence (P06737 1-847): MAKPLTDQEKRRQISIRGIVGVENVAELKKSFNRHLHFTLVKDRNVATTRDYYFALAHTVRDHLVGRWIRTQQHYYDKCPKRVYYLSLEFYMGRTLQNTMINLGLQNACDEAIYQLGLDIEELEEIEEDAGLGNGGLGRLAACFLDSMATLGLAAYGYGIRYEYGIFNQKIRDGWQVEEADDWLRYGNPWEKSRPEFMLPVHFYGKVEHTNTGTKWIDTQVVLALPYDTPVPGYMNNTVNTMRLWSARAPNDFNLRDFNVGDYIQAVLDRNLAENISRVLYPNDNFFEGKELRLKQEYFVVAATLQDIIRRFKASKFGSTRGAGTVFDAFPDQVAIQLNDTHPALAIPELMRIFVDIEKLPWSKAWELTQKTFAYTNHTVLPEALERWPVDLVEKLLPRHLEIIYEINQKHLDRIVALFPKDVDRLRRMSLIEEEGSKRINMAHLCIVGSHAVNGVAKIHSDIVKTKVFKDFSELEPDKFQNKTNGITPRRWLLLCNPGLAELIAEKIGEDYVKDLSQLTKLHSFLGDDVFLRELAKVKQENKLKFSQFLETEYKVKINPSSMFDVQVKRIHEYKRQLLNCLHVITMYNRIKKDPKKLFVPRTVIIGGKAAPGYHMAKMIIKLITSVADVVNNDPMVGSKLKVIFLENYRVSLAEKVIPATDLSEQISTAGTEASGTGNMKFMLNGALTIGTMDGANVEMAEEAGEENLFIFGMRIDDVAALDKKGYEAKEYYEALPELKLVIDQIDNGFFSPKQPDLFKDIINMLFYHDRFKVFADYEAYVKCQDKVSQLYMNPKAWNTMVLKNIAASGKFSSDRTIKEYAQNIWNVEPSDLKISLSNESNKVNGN
In words: Glycogen phosphorylase a inhibition, glycogen degradation, multienzyme coupled assay (NADH fluorescence). It counts as biochemical. Conditions: hrl GPa 20 nM, 6 hours at 30° C. The method, then: The activity of the compounds is alternatively determined by measuring the inhibitory effect of the compounds on glycogen degradation, the production of glucose-1-phosphate from glycogen is monitored by the multienzyme coupled assay, as described in EP 0 846 464 A2, general method of Pesce et al (Pesce, M A, Bodourian, S H, Harris, R C, and Nicholson, J F (1977) Clinical Chemistry 23, […]). The reactions were in 384 well microplate format in a volume of 50 μl. The change in fluorescence due to the conversion of the co-factor NAD to NADH is measured at 340 nm excitation, 465 nm emission in a Tecan Ultra Multifunctional Microplate Reader. The reaction is in 50 OmM HEPES, 3.5 mM KH2PO4, 2.5 mM MgCl2, 2.5 mM ethylene glycol-bis(b-aminoethyl ether) N,N,N′,N′-tetraacetic acid, 100 mM KCl, 8 mM D-(+)-glucose pH7.2, containing 0.5 mM dithiothreitol, the assay buffer solution. Human recombinant liver glycogen phosphorylase a (hrl GPa) 20 nM is pre-incubated in assay buffer solution with 6.25 mM NAD, 1.25 mg type III glycogen at 1.25 mg ml^−1 the reagent buffer, for 30 minutes. […] The non-inhibited activity of GPa is measured in the presence of 10 μl 5% DMSO in assay buffer solution and maximum inhibition measured in the presence of 5 mgs ml^−1 N-ethylmaleimide. […] Relative Fluoresence Units (RFUs) are measured at 340 nm excitation, 465 nm emission. […]

As for `CCN1C(C)=C(C(=O)OC(C)C)C(c2ccccc2Cl)C2=C1COC2=O` (stereo not drawn) [Bay R 3401], in the assay with conscious dogs, the arterial plasma glucose entry is listed as “reduced significantly” and the hepatic glucose output result is “reduced significantly”.
Consider `CN(C)C(=O)[C@H](O)[C@H](Cc1ccccc1)NC(=O)c1cc2cc(Cl)ccc2[nH]1` [CP91149], for which, in the assay with hepatocytes, the glucagon stimulated glycogenolysis entry is “reduce” and the glucose output entry is recorded as “reduce”. Also, the plasma glucose concentration entry in the assay with db/db and ob/ob mice is recorded as “reduced, in a dose related manner”.
Turning to `O=C(N[C@@H](Cc1ccc(F)cc1)C(=O)N1CCC(O)CC1)c1cc2cc(Cl)ccc2[nH]1` [CP320626], in the assay on hepatocytes, the glucagon stimulated glycogenolysis entry is given as “reduce” and the glucose output result was “reduce”. Further, the plasma glucose concentration entry in the assay with db/db and ob/ob mice is given as “reduced, in a dose related manner”.
As to `COC(=O)c1ncoc1[C@H](Cc1ccccc1)NC(=O)c1cc2cc(Cl)ccc2[nH]1` [Example 1, Methyl (S)-5-{1-[(5-chloro-1H-indol-2-ylcarbonyl)amino]-2-phenylethyl}oxazole-4-carboxylate], the IC50 in assay [1] worked out at 2400 nM.
